Assay results taken from PubChem BioAssay AID504487 (Sanford-Burnham Center for Chemical Genomics, 2011).
Active and inactive are the calls of the source.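 How the source made its calls: active means IC50 at or below 20 µM; inactive means the rest.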

test system: 697 B-cell NF-kB luciferase reporter, PMA/ionomycin, 16 h; test: NF-kB reporter suppression in 697 B cells – T-cell screen hits, luminescence, SAR follow-up (AID 504487)

IC50, inactive:
CCCC(=O)NC(c1ccccc1OC)c1ccc2cccnc2c1O (stereo not drawn) > 79 µM, CCCC(=O)NC(c1ccccc1)c1ccc2cccnc2c1O (stereo not drawn) > 79 µM, CCCC(=O)NC(c1ccc(C)cc1)c1ccc2cccnc2c1O (stereo not drawn) > 79 µM, COc1ccc(C(NC(C)=O)c2ccc3cccnc3c2O)cc1 (stereo not drawn) > 79 µM, CCCC(=O)NC(c1ccc(Cl)cc1)c1ccc2cccnc2c1O (stereo not drawn) > 79 µM, COc1cccc(C(=O)Nc2ccc3[nH]c(-c4cccc(OC)c4)cc(=O)c3c2)c1 > 79 µM, COc1ccc(C(NC(=O)c2ccccc2)c2ccc3cccnc3c2O)cc1 (stereo not drawn) > 79 µM, CCCC(=O)NC(c1ccc(OC)cc1)c1ccc2cccnc2c1O (stereo not drawn) > 79 µM
